Results: patent publication US7452886B2, “Pyrrolo pyrimidines as agents for the inhibition of cystein proteases” (Novartis AG, priority 2001, dated 2008)

Target: T1, recombinant human cathepsin K (Homo sapiens, UniProt P43235)
T1 sequence (P43235 115-329): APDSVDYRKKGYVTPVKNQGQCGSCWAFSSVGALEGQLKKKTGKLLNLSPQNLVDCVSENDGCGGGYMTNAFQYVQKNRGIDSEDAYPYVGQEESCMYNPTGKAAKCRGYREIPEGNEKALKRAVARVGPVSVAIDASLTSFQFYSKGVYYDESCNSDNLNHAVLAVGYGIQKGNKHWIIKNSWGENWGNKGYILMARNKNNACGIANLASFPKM
Test: In vitro inhibition of recombinant human cathepsin K (Z-Phe-Arg-AMCA fluorescence assay)
Type: biochemical
Details: recombinant human cathepsin K 0.16 nM, Z-Phe-Arg-AMCA substrate, pH 7.0, 30 min preincubation, 30 min incubation, ambient temperature
Protocol: The In Vitro assay is Carried out as Follows:
The assay is performed in 96 well microtiter plates at ambient temperature using recombinant human cathepsin K. Inhibition of cathepsin K is assayed at a constant enzyme (0.16 nM) and substrate concentration ([…] Z-Phe-Arg-AMCA—Peptide Institute Inc. Osaka, Japan) in 100 mM sodium phosphate buffer, pH 7.0, containing 2 mM dithiothreitol 20 mM Tween 80 and 1 mM EDTA. Cathepsin K is preincubated with the inhibitors for 30 min, and the reaction is initiated by the addition of substrate. After 30 min incubation the reaction is stopped by the addition of E-64 (2 mM), and fluorescence intensity is read on a multi-well plate reader at excitation and emission wavelengths of 360 and 460 nm, respectively. […] Thus for example, the compounds of Examples 6-15 and 7-45 have IC50s for inhibition of human cathepsin K of 1 nM and 0.6 nM respectively.

IC50 [pM] | Structure (SMILES)
600 | CC(C)(C)Cn1c(CN2CCC3(CC2)NC(=O)NC3=O)cc2cnc(C#N)nc21 [Example 7-45]
1000 | Cc1ccc(N2CCN(Cc3cc4cnc(C#N)nc4n3CC(C)(C)C)CC2)cc1 [Example 6-15]
